Reference: PubChem BioAssay (NCI)
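Method: 48-hour compound exposure of cells in 96-well plates, five concentrations, linear interpolation of endpoints. TGI: total growth inhibition.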

How the values were obtained:
Assay in all cases: NCI tumour cell line growth inhibition, 48 h
HL-60(TB) leukemia = test system: HL-60(TB) leukemia
ACHN renal = test system: ACHN renal
SNB-78 CNS = test system: SNB-78 CNS
HOP-92 NSCLC = test system: HOP-92 NSCLC
IGROV1 ovarian = test system: IGROV1 ovarian
A549 NSCLC = test system: A549 NSCLC
SW-620 colon = test system: SW-620 colon
UACC-62 melanoma = test system: UACC-62 melanoma
KM20L2 colon = test system: KM20L2 colon
NCI-H23 lung = test system: NCI-H23 lung
NCI-H460 lung = test system: NCI-H460 lung
EKVX NSCLC = test system: EKVX NSCLC
OVCAR-3 ovarian = test system: OVCAR-3 ovarian
M19-MEL melanoma = test system: M19-MEL melanoma
CAKI-1 renal = test system: CAKI-1 renal
XF 498 CNS = test system: XF 498 CNS
HOP-62 NSCLC = test system: HOP-62 NSCLC
U251 CNS = test system: U251 CNS
MOLT-4 leukemia = test system: MOLT-4 leukemia
SK-OV-3 ovarian = test system: SK-OV-3 ovarian
DMS 273 small cell lung = test system: DMS 273 small cell lung
786-0 renal = test system: 786-0 renal
HCT-15 colon = test system: HCT-15 colon
UO-31 renal = test system: UO-31 renal
HCC-2998 colon = test system: HCC-2998 colon
A498 renal = test system: A498 renal
OVCAR-8 ovarian = test system: OVCAR-8 ovarian
SNB-75 CNS = test system: SNB-75 CNS
CCRF-CEM leukemia = test system: CCRF-CEM leukemia
DMS 114 small cell lung = test system: DMS 114 small cell lung
DLD-1 colon = test system: DLD-1 colon
SF-295 CNS = test system: SF-295 CNS
SNB-19 CNS = test system: SNB-19 CNS
COLO 205 colon = test system: COLO 205 colon
KM12 colon = test system: KM12 colon
K-562 leukemia = test system: K-562 leukemia
RPMI-8226 leukemia = test system: RPMI-8226 leukemia
SF-539 CNS = test system: SF-539 CNS
UACC-257 melanoma = test system: UACC-257 melanoma
OVCAR-4 ovarian = test system: OVCAR-4 ovarian
RXF 393 renal = test system: RXF 393 renal
RXF-631 renal = test system: RXF-631 renal
SN12C renal = test system: SN12C renal
HCT-116 colon = test system: HCT-116 colon
HT29 colon = test system: HT29 colon
SR leukemia = test system: SR leukemia
SK-MEL-28 melanoma = test system: SK-MEL-28 melanoma
LXFL 529 NSCLC = test system: LXFL 529 NSCLC
SK-MEL-2 melanoma = test system: SK-MEL-2 melanoma
LOX IMVI melanoma = test system: LOX IMVI melanoma
NCI-H522 lung = test system: NCI-H522 lung
SF-268 CNS = test system: SF-268 CNS
SK-MEL-5 melanoma = test system: SK-MEL-5 melanoma
M14 melanoma = test system: M14 melanoma
OVCAR-5 ovarian = test system: OVCAR-5 ovarian
NCI-H226 lung = test system: NCI-H226 lung
TK-10 renal = test system: TK-10 renal
HOP-18 NSCLC = test system: HOP-18 NSCLC
MALME-3M melanoma = test system: MALME-3M melanoma

## CC(C)CC(CNC(Cc1ccc(Cl)cc1)C(N)=O)NC(=O)C(Cc1cnc[nH]1)NC(=O)CNC(=O)C(NC(=O)C(C)NC(=O)C(Cc1c[nH]c2ccccc12)NC(=O)C(CCC(=O)O)NC(=O)C(N)Cc1ccccc1)C(C)C (stereo unspecified)
HL-60(TB) leukemia
  TGI: > 133 µM
ACHN renal
  TGI: > 133 µM
SNB-78 CNS
  TGI: > 133 µM
HOP-92 NSCLC
  TGI: < 0.0133 µM
IGROV1 ovarian
  TGI: > 133 µM
A549 NSCLC
  TGI: > 133 µM
SW-620 colon
  TGI: > 133 µM
UACC-62 melanoma
  TGI: > 133 µM
KM20L2 colon
  TGI: > 133 µM
NCI-H23 lung
  TGI: > 133 µM
NCI-H460 lung
  TGI: > 133 µM
EKVX NSCLC
  TGI: > 133 µM
OVCAR-3 ovarian
  TGI: > 133 µM
M19-MEL melanoma
  TGI: > 133 µM
CAKI-1 renal
  TGI: > 133 µM
XF 498 CNS
  TGI: > 133 µM
HOP-62 NSCLC
  TGI: > 133 µM
U251 CNS
  TGI: > 133 µM
MOLT-4 leukemia
  TGI: > 133 µM
SK-OV-3 ovarian
  TGI: > 133 µM
DMS 273 small cell lung
  TGI: > 133 µM
786-0 renal
  TGI: > 133 µM
HCT-15 colon
  TGI: > 133 µM
UO-31 renal
  TGI: > 133 µM
HCC-2998 colon
  TGI: > 133 µM
A498 renal
  TGI: > 133 µM
OVCAR-8 ovarian
  TGI: > 133 µM
SNB-75 CNS
  TGI: > 133 µM
CCRF-CEM leukemia
  TGI: > 133 µM
DMS 114 small cell lung
  TGI: > 133 µM
DLD-1 colon
  TGI: > 133 µM
SF-295 CNS
  TGI: > 133 µM
SNB-19 CNS
  TGI: > 133 µM
COLO 205 colon
  TGI: > 133 µM
KM12 colon
  TGI: > 133 µM
K-562 leukemia
  TGI: > 133 µM
RPMI-8226 leukemia
  TGI: > 133 µM
SF-539 CNS
  TGI: > 133 µM
UACC-257 melanoma
  TGI: > 133 µM
OVCAR-4 ovarian
  TGI: > 133 µM
RXF 393 renal
  TGI: > 133 µM
RXF-631 renal
  TGI: > 133 µM
SN12C renal
  TGI: > 133 µM
HCT-116 colon
  TGI: > 133 µM
HT29 colon
  TGI: > 133 µM
SR leukemia
  TGI: > 133 µM
SK-MEL-28 melanoma
  TGI: > 133 µM
LXFL 529 NSCLC
  TGI: > 133 µM
SK-MEL-2 melanoma
  TGI: > 133 µM

## COc1ccc(/C(Cl)=C(\C=O)c2ccc(Br)cc2)cc1OC
HL-60(TB) leukemia
  TGI: > 100 µM
ACHN renal
  TGI: > 100 µM
SNB-78 CNS
  TGI: > 100 µM
HOP-92 NSCLC
  TGI: 72.6 µM
IGROV1 ovarian
  TGI: > 100 µM
A549 NSCLC
  TGI: > 100 µM
SW-620 colon
  TGI: > 100 µM
LOX IMVI melanoma
  TGI: > 100 µM
UACC-62 melanoma
  TGI: > 100 µM
KM20L2 colon
  TGI: > 100 µM
NCI-H23 lung
  TGI: > 100 µM
NCI-H460 lung
  TGI: > 100 µM
EKVX NSCLC
  TGI: > 100 µM
OVCAR-3 ovarian
  TGI: > 100 µM
M19-MEL melanoma
  TGI: > 100 µM
NCI-H522 lung
  TGI: > 100 µM
CAKI-1 renal
  TGI: > 100 µM
XF 498 CNS
  TGI: 39.8 µM
HOP-62 NSCLC
  TGI: > 100 µM
U251 CNS
  TGI: > 100 µM
MOLT-4 leukemia
  TGI: > 100 µM
SK-OV-3 ovarian
  TGI: > 100 µM
DMS 273 small cell lung
  TGI: > 100 µM
SF-268 CNS
  TGI: > 100 µM
786-0 renal
  TGI: > 100 µM
HCT-15 colon
  TGI: > 100 µM
SK-MEL-5 melanoma
  TGI: > 100 µM
UO-31 renal
  TGI: > 100 µM
HCC-2998 colon
  TGI: > 100 µM
A498 renal
  TGI: > 100 µM
OVCAR-8 ovarian
  TGI: > 100 µM
SNB-75 CNS
  TGI: 30 µM
M14 melanoma
  TGI: > 100 µM
DLD-1 colon
  TGI: > 100 µM
OVCAR-5 ovarian
  TGI: > 100 µM
SF-295 CNS
  TGI: 67.9 µM
SNB-19 CNS
  TGI: > 100 µM
NCI-H226 lung
  TGI: > 100 µM
COLO 205 colon
  TGI: > 100 µM
KM12 colon
  TGI: > 100 µM
K-562 leukemia
  TGI: > 100 µM
TK-10 renal
  TGI: > 100 µM
RPMI-8226 leukemia
  TGI: > 100 µM
SF-539 CNS
  TGI: 67.1 µM
UACC-257 melanoma
  TGI: > 100 µM
HOP-18 NSCLC
  TGI: > 100 µM
OVCAR-4 ovarian
  TGI: > 100 µM
RXF 393 renal
  TGI: > 100 µM
RXF-631 renal
  TGI: > 100 µM
MALME-3M melanoma
  TGI: > 100 µM
SN12C renal
  TGI: > 100 µM
HT29 colon
  TGI: > 100 µM
SK-MEL-28 melanoma
  TGI: > 100 µM
LXFL 529 NSCLC
  TGI: > 100 µM
SK-MEL-2 melanoma
  TGI: 74.4 µM

## OCC(O)COc1c(Cl)ccc(Cl)c1Cl (stereo unspecified)
HL-60(TB) leukemia
  TGI: > 100 µM
ACHN renal
  TGI: > 100 µM
SNB-78 CNS
  TGI: > 100 µM
HOP-92 NSCLC
  TGI: > 100 µM
IGROV1 ovarian
  TGI: > 100 µM
A549 NSCLC
  TGI: > 100 µM
SW-620 colon
  TGI: > 100 µM
LOX IMVI melanoma
  TGI: > 100 µM
UACC-62 melanoma
  TGI: > 100 µM
KM20L2 colon
  TGI: > 100 µM
NCI-H23 lung
  TGI: > 100 µM
NCI-H460 lung
  TGI: > 100 µM
EKVX NSCLC
  TGI: > 100 µM
OVCAR-3 ovarian
  TGI: > 100 µM
M19-MEL melanoma
  TGI: > 100 µM
NCI-H522 lung
  TGI: > 100 µM
CAKI-1 renal
  TGI: > 100 µM
XF 498 CNS
  TGI: > 100 µM
HOP-62 NSCLC
  TGI: > 100 µM
U251 CNS
  TGI: > 100 µM
MOLT-4 leukemia
  TGI: > 100 µM
SK-OV-3 ovarian
  TGI: > 100 µM
DMS 273 small cell lung
  TGI: > 100 µM
SF-268 CNS
  TGI: > 100 µM
786-0 renal
  TGI: > 100 µM
HCT-15 colon
  TGI: > 100 µM
SK-MEL-5 melanoma
  TGI: > 100 µM
UO-31 renal
  TGI: > 100 µM
HCC-2998 colon
  TGI: > 100 µM
A498 renal
  TGI: > 100 µM
OVCAR-8 ovarian
  TGI: > 100 µM
SNB-75 CNS
  TGI: > 100 µM
CCRF-CEM leukemia
  TGI: > 100 µM
DMS 114 small cell lung
  TGI: > 100 µM
M14 melanoma
  TGI: > 100 µM
DLD-1 colon
  TGI: > 100 µM
OVCAR-5 ovarian
  TGI: > 100 µM
SF-295 CNS
  TGI: > 100 µM
SNB-19 CNS
  TGI: > 100 µM
NCI-H226 lung
  TGI: > 100 µM
COLO 205 colon
  TGI: > 100 µM
KM12 colon
  TGI: > 100 µM
K-562 leukemia
  TGI: > 100 µM
TK-10 renal
  TGI: > 100 µM
SF-539 CNS
  TGI: > 100 µM
UACC-257 melanoma
  TGI: > 100 µM
HOP-18 NSCLC
  TGI: > 100 µM
OVCAR-4 ovarian
  TGI: > 100 µM
RXF 393 renal
  TGI: > 100 µM
MALME-3M melanoma
  TGI: > 100 µM
SN12C renal
  TGI: > 100 µM
HCT-116 colon
  TGI: > 100 µM
HT29 colon
  TGI: > 100 µM
SR leukemia
  TGI: > 100 µM
SK-MEL-28 melanoma
  TGI: > 100 µM
LXFL 529 NSCLC
  TGI: > 100 µM
SK-MEL-2 melanoma
  TGI: > 100 µM
